From US9936701B2, “Herbicidal compounds” (Syngenta Participations AG, priority 2013, dated 2018)

What was measured:
[1] = test system: a variety of test species; test: Post-emergence herbicidal activity (glasshouse, sprayed after 8 days cultivation, evaluated after 13 days); assay type: in vivo; set-up: key: 5=total damage to plant; 0=no damage to plant; conditions: rate 1000 g/Ha, scale 0-5
Protocol: (§1) Seeds of a variety of test species were sown in standard soil in pots. After 8 days cultivation (post-emergence) under controlled conditions in a glasshouse (at 24/16° C., day/night; 14 hours light; 65% humidity), the plants were sprayed with an aqueous spray solution derived from the formulation of the technical active ingredient in acetone/water (50:50) solution containing 0.5% Tween 20 (polyoxyethelyene sorbitan monolaurate, CAS RN 9005-64-5). The test plants were then grown in a glasshouse under controlled conditions (at 24/16° C., day/night; 14 hours light; 65% humidity) and watered twice daily. After 13 days, the test was evaluated (5=total damage to plant; 0=no damage to plant).

[2] = test system: a variety of test species; test: Pre-emergence herbicidal activity (glasshouse, sprayed one day after sowing, evaluated after 13 days); assay type: in vivo; set-up: key: 5=total damage to plant; 0=no damage to plant; conditions: application pre-emergence, rate 1000 g/Ha, scale 0-5
Protocol: as §1, with “After” for “After 8 days”, “for one day (pre-emergence)” for “(post-emergence)”

Row | Compound | ABUTH (Abutilon theophrasti) damage score, application post-emergence [1] | ALOMY (Alopecurus myosuroides) damage score, application post-emergence [1] | AMARE (Amaranthus retroflexus) damage score, application post-emergence [1] | ECHCG (Echinochloa crus-galli) damage score, application post-emergence [1] | SETFA (Setaria faberi) damage score, application post-emergence [1] | ZEAMX (Zea mays) damage score, application post-emergence [1] | Pre-emergence herbicidal damage score, ABUTH [2] | Pre-emergence herbicidal damage score, ALOMY [2] | Pre-emergence herbicidal damage score, AMARE [2] | Pre-emergence herbicidal damage score, ECHCG [2] | Pre-emergence herbicidal damage score, SETFA [2] | Pre-emergence herbicidal damage score, ZEAMX [2]
1 | CC1=C(Br)C(=O)N(c2cc(C(C)(C)C)on2)C1O (stereo not drawn) [A1] | 5 | 5 | 5 | 5 | 5 | 4 | 5 | 2 | 5 | 4 | 5 | 1
2 | CC1=C(Br)C(=O)N(c2cc(C)on2)C1O (stereo not drawn) [A3] | 5 | 4 | 5 | 5 | 5 | 3 | 5 | 3 | 5 | 3 | 5 | 2
3 | CC1=C(Cl)C(=O)N(c2cc(C)on2)C1O (stereo not drawn) [A4] | 5 | 4 | 5 | 5 | 5 | 3 | 5 | 3 | 5 | 4 | 5 | 2
4 | CC1=C(Br)C(=O)N(c2cc(C(F)(F)F)on2)C1O (stereo not drawn) [A6] | 4 | 2 | 4 | 3 | 2 | 0 | 0 | 1 | 0 | 1 | 1 | 0
5 | COCC(C)(C)c1cc(N2C(=O)C(Cl)=C(C)C2O)no1 (stereo not drawn) [A7] | 5 | 5 | 4 | 5 | 5 | 5 | 5 | 3 | 5 | 4 | 4 | 2
6 | COCC(C)(C)c1cc(N2C(=O)C(Br)=C(C)C2O)no1 (stereo not drawn) [A8] | 5 | 5 | 3 | 5 | 5 | 3 | 5 | 3 | 5 | 4 | 4 | 1
7 | CC1=C(Cl)C(=O)N(c2cc(C(C)(C)C)on2)[C@H]1O [A9] | 5 | 4 | 5 | 5 | 5 | 5 |  |  |  |  |  | 
8 | CC1=C(Cl)C(=O)N(c2cc(C(C)(C)C)on2)[C@H]1O [A10] |  |  | 5 | 5 | 5 |  |  |  |  |  |  | 
9 | CCC1=C(I)C(=O)N(c2cc(C(C)(C)C)on2)C1O (stereo not drawn) [A13] | 5 | 5 | 5 | 5 | 5 | 2 | 3 | 3 | 5 | 3 | 3 | 1
10 | CCC1=C(Br)C(=O)N(c2cc(C(C)(C)C)on2)C1O (stereo not drawn) [A14] | 5 | 5 | 4 | 5 | 5 | 4 | 5 | 3 | 5 | 4 | 5 | 2
11 | CC(C)(C)c1cc(N2C(=O)C(Cl)=C(C3CC3)C2O)no1 (stereo not drawn) [A15] | 5 | 4 | 5 | 5 | 5 | 3 | 5 | 2 | 5 | 4 | 3 | 2
12 | CCC1=C(Cl)C(=O)N(c2cc(C(C)(C)C)on2)C1O (stereo not drawn) [A16] | 5 | 5 | 5 | 5 | 5 | 5 | 5 | 4 | 5 | 5 | 5 | 3
13 | CC1=C(I)C(=O)N(c2cc(C(C)(C)C)on2)[C@H]1O [A17] | 5 | 5 | 5 | 5 | 5 | 4 | 3 | 2 | 5 | 5 | 3 | 2
14 | CC(C)C1=C(Cl)C(=O)N(c2cc(C(C)(C)C)on2)C1O (stereo not drawn) [A18] | 5 | 5 | 4 | 5 | 5 | 3 | 4 | 4 | 1 | 2 | 3 | 1
15 | CCCC1=C(Cl)C(=O)N(c2cc(C(C)(C)C)on2)C1O (stereo not drawn) [A27] | 5 | 5 | 5 | 5 | 5 | 4 | 5 | 4 | 5 | 5 | 4 | 4
